Measurements from patent publication US6960611B2, “Sulfonyl-containing 2,3-diarylindole compounds, methods for making same, and methods of use thereof” (Institute of Materia Medica, priority 2002, dated 2005).

What was measured:
[1] = test system: carrageenan-induced foot pad edema; experiment: Rat carrageenan-induced foot pad edema assay; assay type: in vivo; details: 10 mg/kg oral
Description: Male Sprgue-Dawley rats (190-220 g ) were fasted with free access to water at least 16 h prior experiments. The rats were dosed orally with a 1 ml suspension of test compound in vehicle (0.5% methyl cellulose and 0.025% Tween-20) or with vehicle alone. One hour later a subplantar injection of 0.1 ml of 1% solution of carageenan in 0.9% strile saline was administered to the right hind foot pad. Paw volume was measured with a displacement plethysmometer 2, 3, and 4 h after carrageenan injection.

COX-2 = molecular target: T1, COX-2 (Mus musculus, UniProt Q05769); experiment: COX-2 assay: PGE2 release (RIA) from LPS-stimulated mouse peritoneal macrophages; assay type: cell-based, mice; details: LPS 1 mg/L 9 h, PGE2 by RIA
T1 construct: endogenous in cells; host or cells: thioglycollate-elicited peritoneal macrophages of male C57BL-6J mice, stimulated with LPS
T1 sequence (Q05769 18-604): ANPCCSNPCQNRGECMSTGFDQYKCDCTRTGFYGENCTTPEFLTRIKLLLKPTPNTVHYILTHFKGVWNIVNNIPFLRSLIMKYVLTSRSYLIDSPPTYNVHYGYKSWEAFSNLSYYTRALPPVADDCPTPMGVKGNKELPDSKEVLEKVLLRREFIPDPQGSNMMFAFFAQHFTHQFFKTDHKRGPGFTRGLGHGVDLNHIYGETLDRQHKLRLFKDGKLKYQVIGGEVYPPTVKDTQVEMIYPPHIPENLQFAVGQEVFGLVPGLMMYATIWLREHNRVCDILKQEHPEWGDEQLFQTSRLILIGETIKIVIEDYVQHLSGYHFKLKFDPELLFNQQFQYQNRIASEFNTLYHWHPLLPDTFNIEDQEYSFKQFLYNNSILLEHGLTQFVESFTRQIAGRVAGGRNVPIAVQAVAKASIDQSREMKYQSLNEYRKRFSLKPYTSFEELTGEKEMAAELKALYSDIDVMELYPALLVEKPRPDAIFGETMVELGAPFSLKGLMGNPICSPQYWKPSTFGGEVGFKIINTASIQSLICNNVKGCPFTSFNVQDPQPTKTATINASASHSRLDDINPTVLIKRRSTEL
Description: Cell culture: Adherent macrophages were harvested from the peritoneal cells of male mice (C57BL-6J, Level 2, from Experiment Animal Center, Academy of Military Medical Science) 3 d after the injection (ip) of brewer thioglycollate medium (5 mL/100 g body weight). […] Cell viability was examined by trypan blue dye exclusion. All incubation procedures were performed with 5% CO2 in humidified air at 37° C.
COX-2 assay: Macrophages were incubated with test compound at different concentrations or solvent (Me2SO) for 1 h and were stimulated with LPS 1 mg/L for 9 h. The amount of PGE2 in supernatants was measured by RIA. The inhibitory ratio was calculated using the same Formula as in COX-1 assay section. Cs, Ct, Cc refer to PGE2 concentration in supernatants of LPS, test compound, and control groups, respectively.
Statistical analysis: Data were expressed as the mean±SD of more than three independent experiments. Dose-inhibitory effect curves were fit through “uphill dose response curves, variable slope” using Prism, GraphPad (version 3.00): [formula]

Row | IC50 (COX-2) [nM] | melting point [°C] | SMILES | edema (paw volume increase) ([1]; 2 h after carrageenan) [%] | edema (paw volume increase) ([1]; 3 h after carrageenan) [%] | inhibitory percentage of edema ([1]; 3 h after carrageenan) [%] | edema (paw volume increase) ([1]; 4 h after carrageenan) [%] | inhibitory percentage of edema ([1]; 4 h after carrageenan) [%] | inhibitory percentage of edema ([1]; 2 h after carrageenan) [%]
1 | 33.5 | 298 to 300 | NS(=O)(=O)c1ccc(-c2[nH]c3ccccc3c2-c2ccc(Cl)cc2)cc1 [Example 62, 2-(4-aminosulfonylphenyl)-3-(4-chlorophenyl)indole] | 16.6 ± 6.5 | 41.3 ± 13.7 | 24.2 | 38.6 ± 14.9 | 25.6 | –
2 | 0.369 | 225 to 226 | CS(=O)(=O)c1ccc(-c2[nH]c3ccccc3c2-c2ccc(Br)cc2)cc1 [Example 63, 2-(4-methylsulfonylphenyl)-3-(4-bromophenyl)indole] | 27.1 ± 10.1 | 55.3 ± 17 | 11.6 | 43.6 ± 9.5 | 16.1 | –
3 | 0.0896 | 197 to 198 | Cc1ccc(-c2c(-c3ccc(S(C)(=O)=O)cc3)[nH]c3ccccc23)cc1 [Example 65, 2-(4-methylsulfonylphenyl)-3-(4-methylphenyl)indole] | 18.5 ± 8.1 | 35.8 ± 6.8 | 42.8 | 27.4 ± 7.1 | 47.2 | –
4 | 0.166 | 206 to 207 | Cc1ccc(-c2c(-c3ccc(S(C)(=O)=O)cc3)[nH]c3ccccc23)cc1C [Example 67, 2-(4-methylsulfonylphenyl)-3-(3,4-dimethylphenyl)indole] | 25.6 ± 13.4 | 43.9 ± 11 | 29.8 | 29.5 ± 12 | 43.1 | –
5 | 0.022 | 218.5 to 220.5 | COc1ccc(-c2c(-c3ccc(S(C)(=O)=O)cc3)[nH]c3ccccc23)cc1 [Example 69, 2-(4-methylsulfonylphenyl)-3-(4-methoxyphenyl)indole] | 21.6 ± 12.4 | 43.4 ± 12.1 | 30.6 | 37.8 ± 10.7 | 27.1 | –
6 | 5.15 | 228 to 230 | NS(=O)(=O)c1ccc(-c2[nH]c3ccccc3c2-c2ccc(F)cc2)cc1 [Example 72, 2-(4-aminosulfonylphenyl)-3-(4-Fluorophenyl)indole] | 32.8 ± 13.2 | 36.4 ± 16.9 | 40.5 | 35.4 ± 11.3 | 41.2 | –
7 | 0.143 | 297 to 299 | NS(=O)(=O)c1ccc(-c2[nH]c3ccc(Cl)cc3c2-c2ccccc2)cc1 [Example 75, 2-(4-aminosulfonylphenyl)-3-phenyl-5-chloroindole] | 35.6 ± 25.5 | 44.1 ± 31.4 | 54.8 | 34 ± 13.6 | 57.8 | 50.1
8 | 5 | 243 to 245 | CS(=O)(=O)c1ccc(-c2[nH]c3ccc(F)cc3c2-c2ccccc2)cc1 [Example 79, 2-(4-methylsulfonylphenyl)-3-phenyl-5-fluoroindole] | 41.8 ± 7.2 | 47.7 ± 15.8 | 51.5 | 31.6 ± 13.3 | 60.8 | 41.4
9 | 2 | 302 to 304 | NS(=O)(=O)c1ccc(-c2[nH]c3ccc(F)cc3c2-c2ccccc2)cc1 [Example 80, 2-(4-aminosulfonylphenyl)-3-phenyl-5-fluoroindole] | 36.7 ± 7.4 | 46.6 ± 14 | 52.2 | 40.8 ± 17.6 | 49.4 | 48.6
10 | 0.0171 | 242 to 244 | Cc1ccc2[nH]c(-c3ccc(S(N)(=O)=O)cc3)c(-c3ccccc3)c2c1 [Example 84, 2-(4-aminosulfonylphenyl)-3-phenyl-5-methylindole] | 63.1 ± 18.1 | 65.6 ± 15.4 | 32.8 | 62.4 ± 15.7 | 22.6 | 40.5
11 | 0.27 | 273 to 275 | CS(=O)(=O)c1ccc(-c2c(-c3ccccc3)[nH]c3ccc(Cl)cc23)cc1 [Example 87, 2-phenyl-3-(4-methylsulfonylphenyl)-5-chloroindole] | 45.4 ± 9.7 | 46.9 ± 13.6 | 23.4 | 43.4 ± 13.4 | 27.9 | –
12 | 354 | 269 to 271 | CS(=O)(=O)c1ccc(-c2c(-c3ccc(Cl)cc3)[nH]c3ccc(Cl)cc23)cc1 [Example 89, 2-(4-chlorophenyl)-3-(4-methylsulfonylphenyl)-5-chloroindole] | 58.6 ± 15.8 | 66.5 ± 13.4 | 46.1 | 58.4 ± 13.8 | 29.9 | –
13 | 2.81 | 246 to 248 | COc1ccc(-c2[nH]c3ccc(Cl)cc3c2-c2ccc(S(C)(=O)=O)cc2)cc1 [Example 90, 2-(4-methoxyphenyl)-3-(4-methylsulfonylphenyl)-5-chloroindole] | 44.2 ± 11.9 | 46.5 ± 5.7 | 52.4 | 40.8 ± 5.3 | 49.6 | 38.1
14 | 1.76 | 246 to 248 | CS(=O)(=O)c1ccc(-c2c(-c3ccccc3F)[nH]c3ccc(Cl)cc23)cc1 [Example 92, 2-(2-fluorophenyl)-3-(4-methylsulfonylphenyl)-5-chloroindole] | 31.3 ± 17 | 44.6 ± 13.7 | 54.3 | 35.4 ± 18.8 | 56.1 | 56.2
15 | 6 | 238 to 240 | CC(=O)Oc1ccccc1-c1[nH]c2ccc(Cl)cc2c1-c1ccc(S(C)(=O)=O)cc1 [Example 93, 2-(2-acetyloxyphenyl)-3-(4-methylsulfonylphenyl)-5-chloroindole] | 49.5 ± 8.2 | 54.4 ± 8.9 | 44.3 | 53.6 ± 11.4 | 33.5 | 30.7
16 | 7.16 | 248 to 250 | CC(=O)Oc1ccc(-c2[nH]c3ccc(Cl)cc3c2-c2ccc(S(C)(=O)=O)cc2)cc1 [Example 94, 2-(4-acetyloxyphenyl)-3-(4-methylsulfonylphenyl)-5-chloroindole] | 58.8 ± 11.4 | 62.1 ± 7.1 | 36.3 | 56.4 ± 11.7 | 30.0 | 17.6
17 | 0.216 | 239 to 241 | CS(=O)(=O)c1ccc(-c2c(-c3ccccc3)[nH]c3ccccc23)cc1 [Example 100, 2-phenyl-3-(4-methylsulfonylphenyl)indole] | 42.8 ± 15.1 | 54.4 ± 7.9 | 44.3 | 43.5 ± 8.9 | 46.1 | 40.1
18 | 2.55 | 223 to 225 | NS(=O)(=O)c1ccc(-c2c(-c3ccccc3)[nH]c3ccccc23)cc1 [Example 101, 2-phenyl-3-(4-aminosulfonylphenyl)indole] | 36.6 ± 8.9 | 39.1 ± 15.4 | 36.1 | 33.6 ± 16.5 | 44.2 | –
